Reference: patent US9937235B2, “Lipidated peptides as anti-obesity agents” (USTAV ORGANICKE CHEMIE A BIOCHEMIE AKADEMIE VED CR, V.V.I, priority 2012, dated 2018)
Where a SMILES comes first, the peptide text is derived from it. Where no end group is shown, it is not given here. [ ]: non-standard residue; d: D form. The star is where a group is joined. 1Nal = N[C@@H](Cc1cccc2ccccc12)C(=O)O; Lauroyl = CCCCCCCCCCCC(=O)*; Nle = CCCC[C@H](N)C(=O)O; Octanoyl = CCCCCCCC(=O)*; Dap = NC[C@H](N)C(=O)O

What was measured:
[1] = molecular target: T1, rat PrRP receptor (GPR10) in RC-4B/C cells (Rattus norvegicus, UniProt Q64121); experiment: Competitive binding to rat pituitary RC-4B/C cells; details: ^125I-rat PrRP31, RC-4B/C cells
T1 construct: host or cells: RC-4B/C rat pituitary cell line
T1 sequence (Q64121 1-370): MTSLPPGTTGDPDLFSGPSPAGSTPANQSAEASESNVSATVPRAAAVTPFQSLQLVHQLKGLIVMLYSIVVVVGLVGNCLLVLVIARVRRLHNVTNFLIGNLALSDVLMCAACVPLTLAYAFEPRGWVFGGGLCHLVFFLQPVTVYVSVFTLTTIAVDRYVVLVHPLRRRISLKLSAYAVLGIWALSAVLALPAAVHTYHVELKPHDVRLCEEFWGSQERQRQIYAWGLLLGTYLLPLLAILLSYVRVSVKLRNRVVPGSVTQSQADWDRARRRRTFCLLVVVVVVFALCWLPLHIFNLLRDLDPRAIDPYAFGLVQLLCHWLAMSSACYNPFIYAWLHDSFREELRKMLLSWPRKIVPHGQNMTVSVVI
Description: Competitive binding experiments were performed according to Motulsky and Neubig (Motulsky, A., et al., “Analyzing radioligand binding data,” Curr Protoc Neurosci, Chapter 7, Unit 7.5, 2002). The rat pituitary cell line RC-4B/C (ATCC, Manassas, USA) was grown on 24-well plates which had their bottom coated with polyethyleneimine. The cells were grown to the optimal density of 300-450 thousand per well. […] Plates were incubated for 60 minutes at room temperature. After incubation, the cells were solubilized in 0.1 mol/l solution of NaOH and the radioactivity bound to the cells was counted using a γ-counter. The experiments were performed in duplicate and repeated at least three times. For evaluation of competitive binding experiments, the program Graph Pad Prism Software (San Diego, Calif., USA) was used. A method of nonlinear regression assuming one-site binding was used.

[2] = test system: MAPK/ERK1/2 signaling pathway in RC-4B/C cells; experiment: MAPK/ERK1/2 signaling in RC-4B/C cells (Western blot); format: cell-based, rat; details: 10^−6 mol·l^−1, 5 minute incubation
Description: RC-4B/C cells, which were used to determine if lipidated PrRP20 analogs are able to initiate the MAPK/ERK1/2 signaling pathway, were grown in 6-well plates up to the optimal density of […]. Seventeen hours before sample harvest, the growth medium was replaced by a serum-free medium lacking epidermal growth factor (EGF). The respective lipidated PrRP analog was added to each well in the final concentration of 10^−6 mol·l^−1. After a 5 minute incubation at 37° C., the plate was placed on ice and each well was rinsed three times with PBS pH 7.4 (137 mmol·l^−1 NaCl, 2.7 mmol·l^−1 KCl, 8 mmol·l^−1 Na2HPO4.2H2O a 1.76 mmol·l^−1 KH2PO4) and cooled to 4° C. […] Samples were collected in at least three independent experiments.
To determine if the lipidated PrRP20 analogs initiated the MAPK/ERK1/2 signaling pathway, Western blot analysis was used. Electrophoresis was performed on 5%/12% polyacrylamide gel in the presence of SDS (SDS-PAGE) on the instrument MiniProtean 3 (BioRad, Herkules, Calif., USA). Samples that were loaded on the gel were first disintegrated by ultrasound, then heated at 100° C. for 2 minutes, and centrifuged for 5 minutes at 500×g at room temperature. […] Electrophoresis was performed at a constant voltage of 100 V for 10 minutes, or for 60 minutes at 150 V.
To show the presence of phosphorylated proteins in the samples, the proteins from the SDS-PAGE gel were transferred to the Immobilon™-P PVDF (polyvinylidene difluoride) membrane (Sigma-Aldrich, USA). The transfer was performed in blotting buffer at pH 8.3 (25 mmol·l^−1 Tris, 192 mmol·l^−1 glycine and 20% methanol) for 20 hours at 4° C. at a constant voltage of 30 V.
After the protein transfer to the PVDF membrane, the membranes were washed for 5 minutes in TBS washing buffer (20 mmol·l^−1 Tris, 140 mmol·l^−1 NaCl and 0.1% Tween-20) and then incubated for 1 hour in blocking buffer (TBS with 5% non-fat milk powder and 5 mmol·l^−1 Na3VO4 and 50 mmol·l^−1 NaF) at room temperature. Further, the membranes were washed three times for 5 minutes using the TBS washing buffer. The membranes were then incubated with the primary antibody against phospho-p44/42 MAPK(Thr202/Tyr204) (Cell Signaling Technology, Beverly, USA) which was diluted in blocking buffer at 1:1000. After the next three washes with the TBS washing buffer for 5 minutes, the membranes were incubated for 1 hour with rabbit secondary antibody labeled with peroxidase (Sigma, St. Louis, USA) which was diluted in blocking buffer at 1:12,000.
The membranes were then washed three times in TBS washing buffer for 5 minutes and then the solution Femto (Pierce SuperSignal, Thermo Fisher Scientific, Rockford, Ill., USA) was applied. The induced chemiluminiscence was detected by a CCD camera (LAS 3000, Fuji Photo Film GmBH, Düsseldorf, Germany).
To assess the initiation of signaling pathways, a densitometric analysis using the program Quantity One (BioRad, Hercules, Calif., USA) was used. For statistical evaluation of the statistically significant response of the cellular signaling, one-way ANOVA with subsequent Dunnett post-hoc test was used. Data was statistically significant at P<0.05.

fasted C57BL/6 mice = experiment: Food intake in fasted mice after SC administration; format: in vivo, mouse; details: SC administration; for % control: food intake vs saline
Outline: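 Male C57BL/6 mice, food-deprived 17 h, received saline, PrRP or lipidated analogs either SC at 1-10 mg/kg or ICV into the third ventricle at 4 nmol/mouse.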

[3] = molecular target: T2, rat PrRP receptor in RC-4B/C cells (rat, UniProt Q64121 1-370); experiment: competition with 125I-rat PrRP31 on RC-4B/C cells
T2 construct: whole, on cells; also called the rat receptor; GPR10
T2 sequence (looked up): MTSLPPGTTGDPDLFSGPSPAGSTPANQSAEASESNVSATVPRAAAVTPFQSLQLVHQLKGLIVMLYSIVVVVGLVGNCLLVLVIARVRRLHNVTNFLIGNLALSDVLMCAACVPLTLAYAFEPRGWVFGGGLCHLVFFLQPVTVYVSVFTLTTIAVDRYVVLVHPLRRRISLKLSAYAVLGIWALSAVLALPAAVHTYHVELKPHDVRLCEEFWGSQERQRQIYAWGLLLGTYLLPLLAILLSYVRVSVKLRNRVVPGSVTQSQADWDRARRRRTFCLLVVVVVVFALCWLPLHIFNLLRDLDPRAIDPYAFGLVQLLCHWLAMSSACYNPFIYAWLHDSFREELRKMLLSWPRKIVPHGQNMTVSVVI
Description: (§1) The rat pituitary cell line RC-4B/C (ATCC, Manassas, USA) was grown on 24-well plates which had their bottom coated with polyethyleneimine. The cells were grown to the optimal density of 300-450 thousand per well.
(§2) Plates were incubated for 60 minutes at room temperature. After incubation, the cells were solubilized in 0.1 mol/l solution of NaOH and the radioactivity bound to the cells was counted using a γ-counter. The experiments were performed in duplicate and repeated at least three times.

[4] = molecular target: T2, rat PrRP receptor in RC-4B/C cells; experiment: competition with 125I-rat PrRP31 on RC-4B/C cells; Ki by Cheng-Prusoff
Description: as §1, §2
For evaluation of competitive binding experiments, the program Graph Pad Prism Software (San Diego, Calif., USA) was used. A method of nonlinear regression assuming one-site binding was used.

CCCCCCCC(=O)NC[C@H](N)C(=O)N[C@@H](CCCNC(=N)N)C(=O)N[C@@H](C)C(=O)N[C@@H](Cc1c[nH]cn1)C(=O)N[C@@H](CCC(N)=O)C(=O)N[C@@H](Cc1c[nH]cn1)C(=O)N[C@@H](CO)C(=O)N[C@@H](CCCC)C(=O)N[C@@H](CCC(=O)O)C(=O)N[C@H](C(=O)N[C@@H](CCCNC(=N)N)C(=O)N[C@H](C(=O)N1CCC[C@H]1C(=O)N[C@@H](CC(=O)O)C(=O)N[C@H](C(=O)N[C@@H](CC(N)=O)C(=O)N1CCC[C@H]1C(=O)N[C@@H](C)C(=O)N[C@@H](Cc1c[nH]c2ccccc12)C(=O)N[C@@H](Cc1ccc(O)cc1)C(=O)N[C@H](C(=O)NCC(=O)N[C@@H](CCCNC(=N)N)C(=O)NCC(=O)N[C@H](C(=O)N[C@@H](CCCNC(=N)N)C(=O)N1CCC[C@H]1C(=O)N[C@H](C(=O)NCC(=O)N[C@@H](CCCNC(=N)N)C(=O)N[C@@H](Cc1ccccc1)C(N)=O)C(C)C)[C@@H](C)CC)[C@@H](C)O)[C@@H](C)CC)[C@@H](C)O)[C@@H](C)O [Analog 2] (H-[Dap](Octanoyl)RAHQHS[Nle]ETRTPDINPAWYTGRGIRPVGRF-NH2)
% of PrRP31 binding [1]: 172%
ERK signaling [2]: agonist

CCCCCCCCCCCC(=O)NC[C@H](N)C(=O)N[C@@H](CCCNC(=N)N)C(=O)N[C@@H](C)C(=O)N[C@@H](Cc1c[nH]cn1)C(=O)N[C@@H](CCC(N)=O)C(=O)N[C@@H](Cc1c[nH]cn1)C(=O)N[C@@H](CO)C(=O)N[C@@H](CCCC)C(=O)N[C@@H](CCC(=O)O)C(=O)N[C@H](C(=O)N[C@@H](CCCNC(=N)N)C(=O)N[C@H](C(=O)N1CCC[C@H]1C(=O)N[C@@H](CC(=O)O)C(=O)N[C@H](C(=O)N[C@@H](CC(N)=O)C(=O)N1CCC[C@H]1C(=O)N[C@@H](C)C(=O)N[C@@H](Cc1c[nH]c2ccccc12)C(=O)N[C@@H](Cc1ccc(O)cc1)C(=O)N[C@H](C(=O)NCC(=O)N[C@@H](CCCNC(=N)N)C(=O)NCC(=O)N[C@H](C(=O)N[C@@H](CCCNC(=N)N)C(=O)N1CCC[C@H]1C(=O)N[C@H](C(=O)NCC(=O)N[C@@H](CCCNC(=N)N)C(=O)N[C@@H](Cc1ccccc1)C(N)=O)C(C)C)[C@@H](C)CC)[C@@H](C)O)[C@@H](C)CC)[C@@H](C)O)[C@@H](C)O [Analog 3] (H-[Dap](Lauroyl)RAHQHS[Nle]ETRTPDINPAWYTGRGIRPVGRF-NH2)
% of PrRP31 binding [1]: 440%
ERK signaling [2]: agonist
food intake (fasted C57BL/6 mice; 45 minutes, 5 mg/kg): 0.12 g
% control (fasted C57BL/6 mice; 45 minutes, 5 mg/kg): 50%
food intake (fasted C57BL/6 mice; 300 minutes, 5 mg/kg): 0.61 g
% control (fasted C57BL/6 mice; 300 minutes, 5 mg/kg): 60%

CCCC[C@H](NC(=O)[C@H](CO)NC(=O)[C@H](Cc1c[nH]cn1)NC(=O)[C@H](CCC(N)=O)NC(=O)[C@H](Cc1c[nH]cn1)NC(=O)[C@H](C)NC(=O)[C@H](CCCNC(=N)N)NC(=O)[C@@H](N)CN)C(=O)N[C@@H](CCC(=O)O)C(=O)N[C@H](C(=O)N[C@@H](CCCNC(=N)N)C(=O)N[C@H](C(=O)N1CCC[C@H]1C(=O)N[C@@H](CC(=O)O)C(=O)N[C@H](C(=O)N[C@@H](CC(N)=O)C(=O)N1CCC[C@H]1C(=O)N[C@@H](C)C(=O)N[C@@H](Cc1c[nH]c2ccccc12)C(=O)N[C@@H](Cc1ccc(O)cc1)C(=O)N[C@H](C(=O)NCC(=O)N[C@@H](CCCNC(=N)N)C(=O)NCC(=O)N[C@H](C(=O)N[C@@H](CCCNC(=N)N)C(=O)N1CCC[C@H]1C(=O)N[C@H](C(=O)NCC(=O)N[C@@H](CCCNC(=N)N)C(=O)N[C@@H](Cc1cccc2ccccc12)C(N)=O)C(C)C)[C@@H](C)CC)[C@@H](C)O)[C@@H](C)CC)[C@@H](C)O)[C@@H](C)O [Analog 7] (H-[Dap]RAHQHS[Nle]ETRTPDINPAWYTGRGIRPVGR[1Nal]-NH2)
% of PrRP31 binding [1]: 8%
ERK signaling [2]: agonist
food intake (fasted C57BL/6 mice; 45 minutes, 10 mg/kg): 0.16 g
% control (fasted C57BL/6 mice; 45 minutes, 10 mg/kg): 49%
food intake (fasted C57BL/6 mice; 300 minutes, 10 mg/kg): 0.88 g
% control (fasted C57BL/6 mice; 300 minutes, 10 mg/kg): 81%

B1: analog no. 3 (peptide)
peptide: [Dap](Lauroyl)RAHQHS[Nle]ETRTPDINPAWYTGRGIRPVGRF-NH2
modifications: N-terminus assumed
SMILES: CCCCCCCCCCCC(=O)NC[C@H](N)C(=O)N[C@@H](CCCNC(=N)N)C(=O)N[C@@H](C)C(=O)N[C@@H](Cc1c[nH]cn1)C(=O)N[C@@H](CCC(N)=O)C(=O)N[C@@H](Cc1c[nH]cn1)C(=O)N[C@@H](CO)C(=O)N[C@@H](CCCC)C(=O)N[C@@H](CCC(=O)O)C(=O)N[C@H](C(=O)N[C@@H](CCCNC(=N)N)C(=O)N[C@H](C(=O)N1CCC[C@H]1C(=O)N[C@@H](CC(=O)O)C(=O)N[C@H](C(=O)N[C@@H](CC(N)=O)C(=O)N1CCC[C@H]1C(=O)N[C@@H](C)C(=O)N[C@@H](Cc1c[nH]c2ccccc12)C(=O)N[C@@H](Cc1ccc(O)cc1)C(=O)N[C@H](C(=O)NCC(=O)N[C@@H](CCCNC(=N)N)C(=O)NCC(=O)N[C@H](C(=O)N[C@@H](CCCNC(=N)N)C(=O)N1CCC[C@H]1C(=O)N[C@H](C(=O)NCC(=O)N[C@@H](CCCNC(=N)N)C(=O)N[C@@H](Cc1ccccc1)C(N)=O)C(C)C)[C@@H](C)CC)[C@@H](C)O)[C@@H](C)CC)[C@@H](C)O)[C@@H](C)O
notes: analog of rat PrRP31
% of PrRP31 binding [3]: 440%
Ki [4]: 1.12 nM
